Measured values taken from US20240058365A1, “External Preparation for Treating Epilepsy or Autism Spectrum Disorder” (OSAKA UNIVERSITY, priority 2019, published 2024).
Values joined by “and” are separate entries in the source; they are usually repeats but may differ in a detail not shown here. Identical values can stand only once.

Key:
[1] = Test Example 6: blood concentration after 7-day intraperitoneal administration; assay type: in vivo, mice (C57BL/6J); conditions: intraperitoneal 3 mg/kg/day for 7 days; 24 hours after the 7th administration; individual mice
Description: Sirolimus (3 mg/kg/day) or a placebo (saline) was intraperitoneally administered to mice (C57BL/6J, body weight: 20 g) once a day for 7 days. After 24 hours from the administration on the 7th day, blood was collected from each of the mice, and blood sirolimus concentration was measured.
(§1) The measurement of the blood concentration was performed by the same method as in Test Example 3. The blood concentration after the topical application to the skin was one 26th in terms of average value as compared to the blood concentration after systemic administration by the intraperitoneal administration. […] The action mechanism by which epileptic seizures are suppressed through systemic administration and the mechanism by which epileptic seizures are suppressed through topical application may differ from each other.

[2] = system: Tuberous sclerosis complex model mice; assay: Test Example 5: number of epileptic seizures (intraperitoneal administration); assay type: in vivo; conditions: intraperitoneal 3 mg/kg/day once a day for 7 days; observed 2 minutes 5 times per day; n=6
Description: FIG. 3 is a graph showing results obtained by intraperitoneally administering sirolimus (3 mg/kg/day) or saline to model mice and control mice (normal mice) once a day for 7 days (n=6 in each group). Homo represents tuberous sclerosis complex model mice, and Ct represents control mice (normal mice). *P<0.05, **P<0.01
Sirolimus (3 mg/kg/day) or a placebo (saline) was intraperitoneally administered to model mice and normal mice similar to those in Test Example 1 once a day for 7 days. The number of seizures was measured by observing the mice for 2 minutes 5 times per day (n=6 in each group). […] The number of seizures over 7 days in the group intraperitoneally administered sirolimus was about 5, which was nearly equal to the number of seizures in the case where the 0.2 wt % sirolimus gel was administered to the forehead once a day at 5 mg (10 μg in terms of sirolimus).

[3] = Test Example 6: blood concentration after 7-day topical application; assay type: in vivo, ICR mice; conditions: 0.2 wt % sirolimus gel 5 mg (10 μg sirolimus) on shaved forehead once a day, 7 days; 24 hours after last; individual mice
Description: ICR mice (body weight: about 37 g) were obtained (Japan SLC, Inc.). The 0.2 wt % sirolimus gel prepared in Production Example 3 or a placebo (only the base) was applied to their shaved forehead once a day at 5 mg each (10 μg in terms of sirolimus). After 24 hours from the administration on the 7th day, blood was collected from each of the mice, and blood sirolimus concentration was measured.
as §1

For `CO[C@H]1C[C@@H]2CC[C@@H](C)[C@@](O)(O2)C(=O)C(=O)N2CCCC[C@H]2C(=O)O[C@H]([C@H](C)C[C@@H]2CC[C@@H](O)[C@H](OC)C2)CC(=O)[C@H](C)/C=C(\C)[C@@H](O)[C@@H](OC)C(=O)[C@H](C)C[C@H](C)/C=C/C=C/C=C/1C` [Sirolimus, sirolimus], the blood sirolimus concentration [1] was 94.43 ng/ml · blood and 85.59 ng/ml · blood and 48.55 ng/ml · blood and 216.83 ng/ml · blood, the “number of seizures over 7 days” value [2] was “about 5” and the blood sirolimus concentration [3] was 3.87 ng/ml · blood and 2.85 ng/ml · blood and 5.98 ng/ml · blood.
